Patent US6831075B2, “Heterocyclic substituted pyrazolones” (Cephalon, Inc., priority 1999, dated 2004)

How the values were obtained:
Assay type in all cases: biochemical
[1] = molecular target: T1, baculoviral GST-MLK3KD (Homo sapiens, UniProt Q16584); assay: Mixed Lineage Kinase-3 inhibition assay (Millipore Multiscreen plate, 32P); conditions: 1 uM compound, 100 μM ATP; for inhibition at 1 µM: read-out: MLK-3 Kinase % inhibition @ 1 uM
T1 construct: 2 μg/ml of baculoviral GST-MLK3KD; GST (N); host or cells: baculovirus expression system
Protocol: Inhibition of Mixed Lineage Kinase-3 Activity
Assays were performed using the Millipore Multiscreen plate format as described for MLK1. Briefly, each 50-μl assay mixture contained 20 mM Hepes, pH 7, 1 mM EGTA, 10 mM MgCl2, 1 mM DTT, 25 mM β-glycerophosphate, 100 μM ATP, 0.25 μCi [γ-^32P]ATP, 0.1% BSA, 500 μg/ml myelin basic protein (UBI #13-104), 2% DMSO, various concentrations of test compound, and 2 μg/ml of baculoviral GST-MLK3KD. Samples were incubated for 15 min at 37° C. The reaction was stopped by adding ice cold 50% TCA and the proteins were allowed to precipitate for 30 min at 4° C. The plates were then washed with ice cold 25% TCA. Supermix scintillation cocktail was added, and the plates were allowed to equilibrate for 1-2 hours prior to counting.

[2] = molecular target: T2, recombinant human baculoviral VEGFR2 cyctoplasmic domain (Homo sapiens, UniProt P35968); assay: VEGFR2 kinase inhibition assay (ELISA-based, time-resolved fluorescence); conditions: 1 uM compound, 30 μM ATP
T2 construct: recombinant human baculoviral VEGFR2 cyctoplasmic domain; host or cells: baculovirus expression system
Protocol: Inhibition of Vascular Endothelial Growth Factor Receptor-2 Kinase Activity
Assay were performed as described for trkA kinase below. The 96-well microtiter plate (FluoroNUNC Maxisorp) was coated with 40 μg/ml recombinant human phospholipase C-γ1/glutathione S-transferase fusion protein. Inhibition studies were performed in 100 μl assay mixtures containing 50 mM HEPES, pH 7.4, 30 μM ATP, 10 mM MnCl2, 0.1% BSA, 2% DMSO, and 1 μM of test compound. The reaction was initiated by adding prephosphorylated recombinant human baculoviral VEGFR2 cyctoplasmic domain. The reaction was allowed to proceed for 15 minutes at 37° C. The detection antibody, eurpium-labeled anti-phosphotyrosine antibody (Wallac #CR04-100), was added at 1:5000 dilution in block buffer (3% BSA in TBST).

[3] = molecular target: T3, recombinant human baculovirus-expressed VEGFR1 cytoplasmic domain (Homo sapiens, UniProt P17948); assay: VEGFR1 kinase inhibition assay (ELISA-based, time-resolved fluorescence); conditions: 1 uM compound, 30 μM ATP; for inhibition at 1 µM: read-out: VEGFR-1 kinase % inhibition @ 1 uM
T3 construct: recombinant human baculovirus-expressed VEGFR1 cytoplasmic domain; host or cells: baculovirus expression system
T3 sequence (P17948 781-1338 limits assumed): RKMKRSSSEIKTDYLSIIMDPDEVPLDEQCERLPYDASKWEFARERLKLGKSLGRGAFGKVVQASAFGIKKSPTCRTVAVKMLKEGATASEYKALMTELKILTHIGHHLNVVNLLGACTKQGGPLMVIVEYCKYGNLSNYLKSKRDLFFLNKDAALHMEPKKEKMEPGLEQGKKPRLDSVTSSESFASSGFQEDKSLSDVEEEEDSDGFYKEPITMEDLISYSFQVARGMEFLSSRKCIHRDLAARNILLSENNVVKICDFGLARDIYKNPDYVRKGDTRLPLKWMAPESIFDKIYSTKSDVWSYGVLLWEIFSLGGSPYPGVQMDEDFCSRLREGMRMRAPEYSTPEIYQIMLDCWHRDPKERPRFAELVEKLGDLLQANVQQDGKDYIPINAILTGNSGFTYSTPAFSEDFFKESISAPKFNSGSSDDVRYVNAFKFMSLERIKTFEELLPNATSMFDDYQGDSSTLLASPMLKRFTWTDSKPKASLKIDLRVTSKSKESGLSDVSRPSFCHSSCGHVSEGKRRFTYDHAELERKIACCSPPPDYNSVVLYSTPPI
Protocol: Inhibition of Vascular Endothelial Growth Factor Receptor-1 Kinase Activity
The VEGFR1 kinase activity assay utilizes an ELISA-based format in a 96-well FluoroNUNC Maxisorp plate with a time-resolved fluorescence readout. The plate was coated with 100 μl/well of substrate solution (recombinant human PLC-γ/GST) at a concentration of 40 μg/ml in Tris buffered saline (TBS). The VEGFR1 activity was assayed in 100-μl assay micture containing 50 mM HEPES (pH 7.4), 30 μM ATP, 10 mM MnCl2, 0.1% BSA, 2% DMSO, and 300 ng/ml prephosphorylated recombinant human baculovirus-expressed VEGFR1 cytoplasmic domain. Compounds were screened for inhibition of the VEGFR1 kinase activity at a concentration of 1 μM. The kinase reaction was allowed to proceed at 37° C. for 15 minutes. The detection antibody, europium-labeled anti-phosphotyrosine antibody (Wallac #CR04-100), was added at 1:5000 dilution in block buffer (3% BSA in TBST). After a 1-hour incubation at 37° C., 100 μl of enhancement solution (Wallac #1244-105) was added and the plate was gently agitated. After 5 min, the fluorescence of the resulting solution was measured using the BMG Fluostar (Model # 403).

[4] = molecular target: T4, recombinant human baculovirus-expressed FGFR1 cytoplasmic domain (Homo sapiens, UniProt P11362); assay: FGFR1 kinase inhibition assay (ELISA-based, time-resolved fluorescence); conditions: 1 uM compound; 20 μM ATP
T4 construct: recombinant human baculovirus-expressed FGFR1 cytoplasmic domain; host or cells: baculovirus expression system
Protocol: Inhibition of Fibroblast Growth Factor Receptor-1 (FGFR1) Kinase Activity
The FGFR1 kinase activity was measured using an ELISA-based format in a 96-well FluoroNUNC Maxisorp plate with a time-resolved fluorescence readout as described for trkA kinase. The plate was coated with 100 μl/well of substrate solution (recombinant human PLC-γ/GST) at a concentration of 10 μg/ml in Tris buffered saline (TBS). The FDGFR1 activity was assayed in 100-μl assay micture containing 50 mM HEPES (pH 7.4), 20 μM ATP, 10 mM MnCl2, 0.1% BSA, 2% DMSO, and 15 ng/ml recombinant human baculovirus-expressed FGFR1 cytoplasmic domain (prephosphorylated prior to use). Compounds were screened for inhibition of the FGFR1 kinase activity at a conentration of 1 μM. The kinase reaction was allowed to proceed at 37° C. for 15 minutes. The detection antibody, europium-labeled anti-phosphotyrosine antibody (Wallace #CR04-100), was added at 1:5000 dilution in block buffer (3% BSA in TBST). After a 1-hour incubation at 37° C., 100 μl of enhancement solution (Wallac #1244-105) and the plate was gently agitated. After 5 min, the fluorescence of the resulting solutions measured using the BMG Fluostar (Model # 403).

T4 sequence (P11362 398-822 limits assumed): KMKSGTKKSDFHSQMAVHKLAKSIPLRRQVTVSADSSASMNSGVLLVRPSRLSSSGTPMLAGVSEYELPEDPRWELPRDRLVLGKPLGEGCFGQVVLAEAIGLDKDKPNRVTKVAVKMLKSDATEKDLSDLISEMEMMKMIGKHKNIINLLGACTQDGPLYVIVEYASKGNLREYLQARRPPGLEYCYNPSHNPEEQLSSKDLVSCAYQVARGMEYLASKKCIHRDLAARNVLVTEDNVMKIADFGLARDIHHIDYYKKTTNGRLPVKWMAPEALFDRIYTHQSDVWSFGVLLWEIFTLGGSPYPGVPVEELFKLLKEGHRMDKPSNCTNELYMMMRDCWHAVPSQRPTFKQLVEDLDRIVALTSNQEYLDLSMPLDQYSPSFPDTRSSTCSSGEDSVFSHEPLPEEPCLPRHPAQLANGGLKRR
T1 sequence (Q16584 117-379 limits assumed): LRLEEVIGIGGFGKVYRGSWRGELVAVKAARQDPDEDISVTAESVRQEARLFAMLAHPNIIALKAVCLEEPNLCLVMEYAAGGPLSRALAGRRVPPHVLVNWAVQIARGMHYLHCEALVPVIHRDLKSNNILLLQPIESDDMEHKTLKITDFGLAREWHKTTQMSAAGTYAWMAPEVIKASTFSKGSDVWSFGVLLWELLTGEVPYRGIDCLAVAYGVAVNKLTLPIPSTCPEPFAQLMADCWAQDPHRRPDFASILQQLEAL
T2 sequence (P35968 786-1356 limits assumed): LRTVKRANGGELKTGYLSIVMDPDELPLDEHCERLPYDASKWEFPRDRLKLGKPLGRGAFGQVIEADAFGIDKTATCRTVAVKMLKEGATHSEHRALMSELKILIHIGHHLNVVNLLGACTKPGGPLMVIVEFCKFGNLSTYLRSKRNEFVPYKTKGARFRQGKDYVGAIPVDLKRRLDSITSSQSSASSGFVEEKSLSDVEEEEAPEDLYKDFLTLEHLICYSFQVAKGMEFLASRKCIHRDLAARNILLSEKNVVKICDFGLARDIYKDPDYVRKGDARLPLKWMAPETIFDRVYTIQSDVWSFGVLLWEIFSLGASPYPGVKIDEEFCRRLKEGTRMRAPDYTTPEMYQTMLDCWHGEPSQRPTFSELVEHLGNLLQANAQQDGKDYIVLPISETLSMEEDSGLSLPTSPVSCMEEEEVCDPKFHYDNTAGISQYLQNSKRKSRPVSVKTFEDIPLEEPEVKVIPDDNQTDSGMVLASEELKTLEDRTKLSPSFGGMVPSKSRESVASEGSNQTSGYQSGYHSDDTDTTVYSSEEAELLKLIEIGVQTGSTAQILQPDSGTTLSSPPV

Row | SMILES | MLK-3 Kinase % inhibition @ 1 uM [1] [%] | VEGFR-2 kinase % inhibition @ 1 uM [2] [%] | VEGFR-1 kinase % inhibition @ 1 uM [3] [%] | FGFR1 % inhibition @ 1 uM [4] [%] | inhibition at 1 µM [1] [%] | inhibition at 1 µM ([2]; read-out: VEGFR-2 kinase % inhibition @ 1 uM) [%] | inhibition at 1 µM [3] [%] | inhibition at 1 µM [4] [%]
1 | O=C1NN=C(c2ccco2)C1=Cc1cn(CCOCc2ccccc2)c2ccccc12 [Compound 71] | 9 | −1 | 12 | 26 | – | – | – | –
2 | Cc1cccc2c(C=C3C(=O)NN=C3c3ccn(C)c3)c[nH]c12 [Compound 34] | 32 | 32 | 30 | 34 | – | – | – | –
3 | Cc1nc(C)c(C2=NNC(=O)C2=Cc2c[nH]c3ccccc23)s1 [Compound 13] | 17 | 25 | 39 | 30 | – | – | – | –
4 | O=C1NN=C(c2ccoc2)C1=Cc1c[nH]c2ccc(Cl)cc12 [Compound 17] | 19 | 48 | 17 | 13 | – | – | – | –
5 | O=C1NN=C(c2ccoc2)C1=Cc1c[nH]c2cccc(OCc3ccccc3)c12 [Compound 18] | 47 | 12 | 9 | 22 | – | – | – | –
6 | Cn1ccc(C2=NNC(=O)C2=Cc2c[nH]c3cccc(OCc4ccccc4)c23)c1 [Compound 31] | 49 | 16 | 10 | 17 | – | – | – | –
7 | O=C1NN=C(c2ccco2)C1=Cc1ncc[nH]1 [Compound 54] | 0 | 4 | 5 | 45 | – | – | – | –
8 | Cn1cccc1C1=NNC(=O)C1=Cc1c[nH]c2ccc(F)cc12 [Compound 56] | −1 | 8 | 5 | 30 | – | – | – | –
9 | Cc1cc(C)c(C=C2C(=O)NN=C2c2cccn2C)[nH]1 [Compound 55] | 26 | 38 | 20 | 36 | – | – | – | –
10 | O=C1NN=C(c2cc3ccccc3o2)C1=Cc1c[nH]c2ccccc12 [Compound 58] | 43 | 47 | 51 | 24 | – | – | – | –
11 | O=C1NN=C(c2ccco2)C1=Cc1c[nH]c2ccccc12 [Compound 29, 3-(2-furyl)-4-(indol-3-ylmethylene)-2-pyrazolin-5-one] | – | – | – | – | 38 | 68 | 53 | 41
12 | Cc1cc(C)c(C=C2C(=O)NN=C2c2sc(C)nc2C)[nH]1 [Compound 14] | 14 | 13 | 8 | 22 | – | – | – | –
13 | Cc1cc(C)c(C=C2C(=O)NN=C2c2nccs2)[nH]1 [Compound 26, 4-[(3,5-dimethylpyrrol-2-yl)methylene]-3-(1,3-thiazol-2-yl)-2 pyrazolin-5-one] | – | – | – | – | 57 | – | 64 | 46
14 | Cc1cccc2c(C=C3C(=O)NN=C3c3ccco3)c[nH]c12 [Compound 47] | 31 | 64 | 40 | 32 | – | – | – | –
15 | Cn1cc(C=C2C(=O)NN=C2c2nccs2)c2ccccc21 [Compound 60] | 58 | – | 63 | 66 | – | – | – | –
16 | O=C1NN=C(c2ccoc2)C1=Cc1c[nH]c2ccc(F)cc12 [Compound 19] | 11 | 44 | 30 | 23 | – | – | – | –
17 | Cc1cc(C)c(C=C2C(=O)NN=C2c2cc(C)oc2C)[nH]1 [Compound 36] | 25 | 27 | 14 | 31 | – | – | – | –
18 | Cc1cc(C)c(C=C2C(=O)NN=C2c2ccoc2)[nH]1 [Compound 1] | 28 | – | 35 | 6 | – | – | – | –
19 | Cc1cc(C)c(C=C2C(=O)NN=C2c2cnccn2)[nH]1 [Compound 74, 4-[(3,5-dimethylpyrrol-2-yl)methylene]-3-pyrazin-2-yl-2-pyrazolin-5-one] | – | – | – | – | 72 | – | 74 | 48
